The results in this text go back to patent US10450314B2, “Pteridine derivatives as modulators of ROR gamma” (Boehringer Ingelheim International GmbH, priority 2015, dated 2019).

Data set [1] can be described thus: Human liver microsome (HLM) metabolic stability assay. It is filed as in vitro ADME. The conditions noted are these: human liver microsomes, 1 uM compound, 37° C., 60 min; % hepatic blood flow. The procedure:
Assessment of Metabolic Stability
The 5 time point, high-throughput human liver microsome (HLM) metabolic stability assay is designed to determine in vitro compound metabolism. Compounds are incubated with HLMs at a concentration of 1 uM, at 37° C., for a total of 60 min. The percent of compound remaining at 5, 15, 30, and 60 min is used to calculate the t1/2 (min), CLint (mL/min/kg), CLh (mL/min/kg), and % Qh. The assay is based on a 96-well format and can accommodate up to 92 compounds per plate (n=1).
Using the 96-well multi-channel head, the Biomek FX, equipped with a Peltier heating block/shaker, is programmed to accomplish the following steps: • 1. Pipette 175 uL of 1.15 mg/mL microsomes into each of the 96 conical inserts (Analytical Sales and Products, catalog number 96PL05) that fit into the plate of the Peltier heating block/shaker (the incubation plate) • 2. Add 5 uL of compounds from the assay plate to the microsomes and shake the mixture at 600 rpm at 42.1° C. for 10 min (a setting of 42.1° C. on the Peltier is required for the samples to incubate at 37° C.) • 3. After 10 min, prompt the user to add the NADPH plate to the deck and add 20 uL from the NADPH plate to the incubation plate to start the reaction • 4. Add 215 uL of 100%, cold acetonitrile containing an internal standard(s) to a 0 minute, 5 minute, 15 minute, 30 minute, and 60 minute “quench” plate • 5. At 0 min, 5 min, 15 min, 30 min, and 60 min into the incubation, aspirate 12 uL from the incubation mixture and add it to the quench solution to stop the reaction • 6. Add 185 uL HPLC grade water to each well of the 0, 5, 15, 30 and 60 minute quench plates to dilute compounds to the appropriate concentration for the mass spectrometer
After all time points are collected, the quench plates are sealed with 96-well pierceable plate mats or heat sealing foil and centrifuged at 3000 rpm for 15 min to pellet the microsomes.
The plates are analyzed using LC/MS/MS with electron spray ionization (ESI) and the previously determined MRM transitions. The LC method includes the following parameters:
Using an Excel template in Activitybase, the peak areas corresponding to 5, 15, 30 and 60 min are compared to the peak area at 0 min to calculate the percent of remaining compound using the following equation:
Percent compound remaining=(AUC at Time t min/AUC at Time 0 min)×100 where t=0, 5, 15, 30 or 60 min.
Time (min) is plotted against the natural logarithm (Ln) of the percent compound remaining to determine the slope. The slope is used to calculate t1/2 (min) using the equation, t1/2=0.693/slope.
Clint, Intrinsic Clearance
On the technique in general: Liver microsomes are vesicles of endoplasmic reticulum, rich in cytochrome P450 enzymes.

The target of a further data set is T1, RORγ (Homo sapiens, UniProt P51449).
T1 construct: expressed in transfected cells; host or cells: HEK 293 cells, transiently cotransfected with pGL4.3 luc2P/GAL4UAS/Hygro reporter
T1 sequence (P51449 269-508 limits assumed): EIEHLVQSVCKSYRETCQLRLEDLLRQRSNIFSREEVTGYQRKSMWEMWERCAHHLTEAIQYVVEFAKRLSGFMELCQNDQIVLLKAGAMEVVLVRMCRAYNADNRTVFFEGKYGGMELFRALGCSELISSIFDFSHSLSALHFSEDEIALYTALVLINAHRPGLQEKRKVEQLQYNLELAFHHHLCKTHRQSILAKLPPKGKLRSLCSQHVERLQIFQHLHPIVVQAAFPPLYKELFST
In words: RORγ Reporter Gene Assay (RGA), luciferase transactivation in transiently transfected HEK 293 cells. It is filed as cell-based. The conditions noted are these: HEK 293 cells cotransfected with pGL4.3 luc2P/GAL4UAS and pBIND Gal4DBD hRORC LBD; 20-24 h incubation. The method, then: Reporter Gene Assay (RGA)
A nuclear receptor transactivation assay is performed to quantitate the ability of test compounds to inhibit RORγ transactivation of a luciferase reporter. A similar assay is described in: Khan et al., Bioorganic & Medicinal Chemistry Letters 23 (2013), 532-536. The system uses transiently transfected HEK 293 cells cotransfected with two plasmids (pGL4.3, luc2P/GAL4UAS/Hygro, and pBIND, Gal4DBD hRORC LBD1-3). The positive control is co-transiently transfected with both plasmids, and the negative control contains the pGL4.3 promoter sequence. Assays are assembled in 384 well plates where transiently transfected cells and test compound at varying concentrations are incubated for 20-24 h. The next day, assays plates are taken out and equilibrated at RT for 20-30 minutes. Bright-Glo™ Luciferase Assay System is used to detect Luciferase production. After addition of Bright GLO detection reagent, the plates are incubated at RT for 20 minutes. The plates are read on an Envision plate reader to measure luminescence signal. The RLU signal is converted to POC relative to control and blank wells.
Compound Dilution Buffer:
Bright Glo Luciferase Assay System: Promega #E2620
Thaw lysis buffer provided in kit, add 100 mL lysis buffer to substrate powder.
Background: Reporter assays use an easily measured gene product as a stand-in for the process of interest.

SMILES strings stand for the structures. Bounds are passed on as bounds.

For the compound `CCS(=O)(=O)c1ccc(CNc2nc3c(C)nc(-c4c(C)ncnc4C4CC4)nc3n([C@@H](C)CF)c2=O)cn1` [Example 50], in data set [1], the “HLM (% Qh)” value is recorded as under 24 % Qh. In addition, the IC50 against RORγ was 2700 nM.
Taken in the same sequence, the figures for `CCS(=O)(=O)c1cnc(CNc2nc3c(C)nc(-c4c(C)ncnc4C4CC4)nc3n([C@@H](C)C3CC3)c2=O)nc1` [Example 6] were under 24 % Qh and 87 nM.
Taken in the same sequence, the figures for `COc1ncnc(C2CC2)c1-c1nc(C)c2nc(NCc3ccc(S(C)(=N)=O)cc3)c(=O)n([C@@H](C)C3CC3)c2n1` (stereo partly shown) [Example 67] were under 24 % Qh and 110 nM.
Taken in the same sequence, the figures for `Cc1ncnc(C2CC2)c1-c1nc(C)c2nc(NCc3ccc(S(N)(=O)=O)cn3)c(=O)n([C@@H](C)C3CC3)c2n1` [Example 61] were under 24 % Qh and 185 nM.
With `CC[C@H](C)n1c(=O)c(NCc2ccc(S(C)(=O)=O)nc2)nc2c(C)nc(-c3c(C)ncnc3C3CC3)nc21` [Example 12], in data set [1], the “HLM (% Qh)” value is under 24 % Qh. Moreover, the IC50 on RORγ is 140 nM.
In the case of `COc1ncnc(C2CC2)c1-c1nc(C)c2nc(NCc3ccc(S(C)(=O)=O)nc3)c(=O)n([C@@H](C)C(F)(F)F)c2n1` [Example 19], in data set [1], the “HLM (% Qh)” value is given as 62 % Qh. The IC50 against RORγ was found to be 165 nM.
Taken in the same sequence, the figures for `CCS(=O)(=O)c1ccc(CNc2nc3c(C)nc(-c4c(C)ncnc4C4CC4)nc3n([C@@H](C)C(F)(F)F)c2=O)cn1` [Example 82] were under 24 % Qh and 225 nM.
Taken in the same sequence, the figures for `CC[C@@H](C)n1c(=O)c(NCc2ncc(S(C)(=O)=O)cn2)nc2c(C)nc(-c3c(OC)ncnc3C3CC3)nc21` [Example 56] were under 24 % Qh and 1100 nM.
Taken in the same sequence, the figures for `Cc1ncnc(C2CC2)c1-c1nc(C)c2nc(NCc3ccc(S(C)(=O)=O)cn3)c(=O)n(C(C)C(F)F)c2n1` (stereo not shown) [Example 90] were under 24 % Qh and 235 nM.
Consider `CC[C@@H](C)n1c(=O)c(NCc2cnc(S(C)(=O)=O)cn2)nc2c(C)nc(-c3c(C)ncnc3C3CC3)nc21` [Example 55], for which, in data set [1], the “HLM (% Qh)” value is on record as under 24 % Qh. The same compound yielded an IC50 at RORγ of 265 nM.
As for `CC[C@@H](C)n1c(=O)c(NCc2ccc(S(=N)(=O)CC)cc2)nc2c(C)nc(-c3c(OC)ncnc3C3CC3)nc21` (single isomer, unassigned) [Example 29b], in data set [1], the “HLM (% Qh)” value is 48 % Qh. The compound further showed an IC50 against RORγ of 170 nM.
The corresponding values for `CCS(=N)(=O)c1ccc(CNc2nc3c(C)nc(-c4c(C)ncnc4C4CC4)nc3n([C@@H](C)C(F)(F)F)c2=O)cc1` (single isomer, unassigned) [Example 34b] are under 24 % Qh and 170 nM.
The corresponding values for `CC[C@@H](C)n1c(=O)c(NCc2ccc(S(N)(=O)=O)cn2)nc2c(C)nc(-c3c(C)ncnc3C3CC3)nc21` [Example 76] are 34 % Qh and 275 nM.
Taken in the same sequence, the figures for `Cc1ncnc(C2CC2)c1-c1nc(C)c2nc(NCc3ccc(S(C)(=N)=O)cn3)c(=O)n([C@@H](C)C3CC3)c2n1` (single isomer, unassigned) [Example 43b] were under 24 % Qh and 400 nM.
Turning to `CCS(=N)(=O)c1ccc(CNc2nc3c(C)nc(-c4c(C)ncnc4C4CC4)nc3n([C@@H](C)C(F)(F)F)c2=O)cc1` (single isomer, unassigned) [Example 34a], the “HLM (% Qh)” value in data set [1] was found to be 25 % Qh. At RORγ, this compound yielded an IC50 of 210 nM.
Taken in the same sequence, the figures for `CC[C@@H](C)n1c(=O)c(NCC2CCN(S(=O)(=O)CC)CC2)nc2c(C)nc(-c3c(C)ncnc3C3CC3)nc21` [Example 24] were 69 % Qh and 120 nM.
Turning to `Cc1ncnc(C2CC2)c1-c1nc(C)c2nc(NCc3ccc(S(C)(=N)=O)cn3)c(=O)n([C@@H](C)C3CC3)c2n1` (single isomer, unassigned) [Example 43a], in data set [1], the “HLM (% Qh)” value is reported as under 24 % Qh. Moreover, on RORγ, the IC50 worked out at 730 nM.
The corresponding values for `COc1ncnc(C2CC2)c1-c1nc(C)c2nc(NCc3ccc(S(N)(=O)=O)cn3)c(=O)n(CC(C)C)c2n1` [Example 70] are under 24 % Qh and 1300 nM.
Taken in the same sequence, the figures for `COc1ncnc(C2CC2)c1-c1nc(C)c2nc(NCc3ccc(S(C)(=N)=O)cc3)c(=O)n([C@@H](C)C(F)(F)F)c2n1` (single isomer, unassigned) [Example 99a] were 41 % Qh and 230 nM.
Taken in the same sequence, the figures for `CC[C@@H](C)n1c(=O)c(NCc2ccc(S(=O)(=O)CC)nc2)nc2c(C)nc(-c3c(OC)ncnc3C3CC3)nc21` [Example 3] were under 24 % Qh and 88 nM.
Regarding `Cc1ncnc(C2CC2)c1-c1nc(C)c2nc(NCc3ccc(S(C)(=N)=O)cc3)c(=O)n([C@@H](C)C3CC3)c2n1` (single isomer, unassigned) [Example 27a], the “HLM (% Qh)” value in data set [1] is recorded as under 24 % Qh. Also, at RORγ, the IC50 came to 210 nM.
The corresponding values for `COc1ncnc(C2CC2)c1-c1nc(C)c2nc(NCc3ccc(S(C)(=N)=O)cc3)c(=O)n([C@@H](C)C(F)(F)F)c2n1` (single isomer, unassigned) [Example 99b] are 41 % Qh and 260 nM.
On to `CCS(=N)(=O)c1ccc(CNc2nc3c(C)nc(-c4c(OC)ncnc4C4CC4)nc3n([C@@H](C)C(F)(F)F)c2=O)nc1` (single isomer, unassigned) [Example 101b], for which, in data set [1], the “HLM (% Qh)” value was under 24 % Qh. The IC50 against RORγ was found to be 315 nM.
The corresponding values for `CCS(=N)(=O)c1ccc(CNc2nc3c(C)nc(-c4c(OC)ncnc4C4CC4)nc3n([C@@H](C)C(F)(F)F)c2=O)nc1` (single isomer, unassigned) [Example 101a] are under 24 % Qh and 365 nM.
Taken in the same sequence, the figures for `CC[C@@H](C)n1c(=O)c(NCc2ncc(S(C)(=O)=O)cn2)nc2c(C)nc(-c3c(C)ncnc3C3CC3)nc21` [Example 57] were under 24 % Qh and 500 nM.
In the case of `Cc1ncnc(C2CC2)c1-c1nc(C)c2nc(NCc3ccc(S(C)(=O)=O)cn3)c(=O)n([C@@H](C#N)C(C)C)c2n1` [Example 31], the “HLM (% Qh)” value in data set [1] was 55 % Qh. This compound also had an IC50 against RORγ of 850 nM.
The corresponding values for `CCS(=O)(=O)c1ccc(CNc2nc3c(C)nc(-c4c(OC)ncnc4C4CC4)nc3n([C@@H](C)C3CC3)c2=O)nc1` [Example 71] are 35 % Qh and 65 nM.
On to `CCS(=O)(=O)c1ccc(CNc2nc3c(C)nc(-c4c(OC)ncnc4C4CC4)nc3n(CC(C)C)c2=O)cn1` [Example 78], for which, in data set [1], the “HLM (% Qh)” value is under 24 % Qh. The same compound gave an IC50 against RORγ of 275 nM.
Taken in the same sequence, the figures for `CC[C@@H](C)n1c(=O)c(NCc2ccc(S(=O)(=O)CC)cn2)nc2c(CF)nc(-c3c(C)ncnc3C3CC3)nc21` [Example 53] were 33 % Qh and 160 nM.

For orientation: IC50 means the concentration that inhibits the measured activity by half.
